# Measured values published in ChEMBL document CHEMBL5465560, “Selectivity Literature for EUbOPEN Chemogenomic Library” (2024).
# Experiments:
# [1] = target: Cyclin-dependent kinase 8 (Homo sapiens, UniProt P49336); assay: Selectivity interaction (KinomeScan (DiscoverX)) EUB0000092b CDK8; conditions: at 10 µM
# [2] = target: T1, Serine/threonine-protein kinase Sgk1 (Homo sapiens) (UniProt O00141); assay: Selectivity interaction (Upstate Kinase Profiler service (Millipore)) EUB0000056c SGK1; conditions: at 1 µM
# T1 sequence (whole entry): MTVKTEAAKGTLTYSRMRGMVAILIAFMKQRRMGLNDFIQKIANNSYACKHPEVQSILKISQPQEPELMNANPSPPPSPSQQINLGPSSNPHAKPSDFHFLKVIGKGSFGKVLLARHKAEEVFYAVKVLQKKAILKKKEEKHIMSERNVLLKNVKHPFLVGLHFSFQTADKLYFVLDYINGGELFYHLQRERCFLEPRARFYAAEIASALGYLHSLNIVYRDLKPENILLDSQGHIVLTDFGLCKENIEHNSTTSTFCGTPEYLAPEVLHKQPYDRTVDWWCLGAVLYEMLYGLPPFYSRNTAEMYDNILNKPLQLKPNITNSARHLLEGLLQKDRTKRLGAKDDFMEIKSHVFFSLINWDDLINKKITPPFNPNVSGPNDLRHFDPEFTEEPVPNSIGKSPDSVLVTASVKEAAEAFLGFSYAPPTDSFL
# [3] = target: Cyclin-dependent kinase 18 (Homo sapiens) (UniProt Q07002); assay: Selectivity interaction (KinomeScan (DiscoverX)) EUB0000607a CDK18; conditions: at 10 µM
# [4] = target: T2, Serine/threonine-protein kinase DCLK1 (Homo sapiens) (UniProt O15075); assay: Selectivity interaction (Ambit KINOMEscan and KiNATiv profiling in Jurkat cells) EUB0000090b DCLK1; type: cell-based; conditions: at 1 µM
# T2 sequence (whole entry): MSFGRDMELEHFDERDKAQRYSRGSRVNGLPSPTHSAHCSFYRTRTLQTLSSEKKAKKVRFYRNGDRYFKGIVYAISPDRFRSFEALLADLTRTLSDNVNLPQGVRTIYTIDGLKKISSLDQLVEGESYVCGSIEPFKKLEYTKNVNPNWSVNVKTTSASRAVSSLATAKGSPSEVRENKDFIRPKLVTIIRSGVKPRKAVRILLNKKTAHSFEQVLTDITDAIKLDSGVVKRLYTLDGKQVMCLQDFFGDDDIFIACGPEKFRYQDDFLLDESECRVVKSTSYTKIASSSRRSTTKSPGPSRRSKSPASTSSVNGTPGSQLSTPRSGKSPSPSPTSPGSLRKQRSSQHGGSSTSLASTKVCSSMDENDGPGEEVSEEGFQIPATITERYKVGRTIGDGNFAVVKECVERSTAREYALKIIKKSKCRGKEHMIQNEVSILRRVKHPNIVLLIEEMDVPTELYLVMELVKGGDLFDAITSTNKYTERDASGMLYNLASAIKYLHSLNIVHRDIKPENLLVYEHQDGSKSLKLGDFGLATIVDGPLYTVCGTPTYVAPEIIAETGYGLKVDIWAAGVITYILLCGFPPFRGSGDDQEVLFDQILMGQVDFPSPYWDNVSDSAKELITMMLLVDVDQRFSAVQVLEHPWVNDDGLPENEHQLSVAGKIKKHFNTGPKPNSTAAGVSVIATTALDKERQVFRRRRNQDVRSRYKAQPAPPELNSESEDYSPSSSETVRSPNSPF
# [5] = target: T3, Serine/threonine-protein kinase TBK1 (Homo sapiens) (UniProt Q9UHD2); assay: Selectivity interaction (Ambit KINOMEscan and KiNATiv profiling in Jurkat cells) EUB0000090b TBK1; type: cell-based; conditions: at 1 µM
# T3 sequence (whole entry): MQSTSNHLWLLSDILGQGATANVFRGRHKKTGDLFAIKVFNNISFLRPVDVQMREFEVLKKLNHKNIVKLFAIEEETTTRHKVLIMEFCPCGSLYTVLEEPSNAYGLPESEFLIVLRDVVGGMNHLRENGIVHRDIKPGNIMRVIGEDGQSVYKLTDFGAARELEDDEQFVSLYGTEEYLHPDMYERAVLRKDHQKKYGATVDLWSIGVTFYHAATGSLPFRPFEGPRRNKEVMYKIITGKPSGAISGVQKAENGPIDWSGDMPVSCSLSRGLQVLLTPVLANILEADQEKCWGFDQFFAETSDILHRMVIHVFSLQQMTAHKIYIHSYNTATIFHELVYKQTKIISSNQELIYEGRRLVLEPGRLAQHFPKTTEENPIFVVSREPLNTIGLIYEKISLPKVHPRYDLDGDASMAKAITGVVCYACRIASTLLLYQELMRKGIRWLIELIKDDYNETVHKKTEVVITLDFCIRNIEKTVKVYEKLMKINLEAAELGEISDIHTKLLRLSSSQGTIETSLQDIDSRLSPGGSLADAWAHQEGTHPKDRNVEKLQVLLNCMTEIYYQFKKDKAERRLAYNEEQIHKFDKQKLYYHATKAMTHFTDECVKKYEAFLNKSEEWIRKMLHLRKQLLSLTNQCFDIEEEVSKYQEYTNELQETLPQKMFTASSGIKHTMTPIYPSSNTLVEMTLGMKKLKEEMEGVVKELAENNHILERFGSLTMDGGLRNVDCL
# [6] = target: T4, Mitogen-activated protein kinase kinase kinase 7 (Homo sapiens) (UniProt O43318); assay: Selectivity interaction (ActivX KiNativ screen (ex vivo kinase selectivity in human PBMCs)) EUB0001619a MAP3K7; type: cell-based; conditions: PBMC, at 1 µM
# T4 sequence (whole entry): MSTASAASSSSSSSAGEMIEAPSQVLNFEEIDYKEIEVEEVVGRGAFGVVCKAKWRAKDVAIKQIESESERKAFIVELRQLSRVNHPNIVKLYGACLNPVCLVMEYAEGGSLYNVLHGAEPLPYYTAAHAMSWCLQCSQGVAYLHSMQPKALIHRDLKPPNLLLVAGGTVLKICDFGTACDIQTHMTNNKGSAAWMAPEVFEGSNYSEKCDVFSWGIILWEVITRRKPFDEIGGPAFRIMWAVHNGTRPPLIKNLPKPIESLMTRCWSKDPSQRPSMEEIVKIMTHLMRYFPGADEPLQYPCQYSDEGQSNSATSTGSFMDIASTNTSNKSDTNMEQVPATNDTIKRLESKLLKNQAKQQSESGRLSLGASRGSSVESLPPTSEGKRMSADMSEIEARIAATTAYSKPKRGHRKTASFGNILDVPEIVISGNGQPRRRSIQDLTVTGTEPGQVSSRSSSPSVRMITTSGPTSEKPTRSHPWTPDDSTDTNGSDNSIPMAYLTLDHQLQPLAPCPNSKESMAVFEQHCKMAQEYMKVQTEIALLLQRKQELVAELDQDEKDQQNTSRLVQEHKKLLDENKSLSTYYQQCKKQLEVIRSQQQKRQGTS
# Sequence of Cyclin-dependent kinase 18 (Homo sapiens) (Q07002 whole entry): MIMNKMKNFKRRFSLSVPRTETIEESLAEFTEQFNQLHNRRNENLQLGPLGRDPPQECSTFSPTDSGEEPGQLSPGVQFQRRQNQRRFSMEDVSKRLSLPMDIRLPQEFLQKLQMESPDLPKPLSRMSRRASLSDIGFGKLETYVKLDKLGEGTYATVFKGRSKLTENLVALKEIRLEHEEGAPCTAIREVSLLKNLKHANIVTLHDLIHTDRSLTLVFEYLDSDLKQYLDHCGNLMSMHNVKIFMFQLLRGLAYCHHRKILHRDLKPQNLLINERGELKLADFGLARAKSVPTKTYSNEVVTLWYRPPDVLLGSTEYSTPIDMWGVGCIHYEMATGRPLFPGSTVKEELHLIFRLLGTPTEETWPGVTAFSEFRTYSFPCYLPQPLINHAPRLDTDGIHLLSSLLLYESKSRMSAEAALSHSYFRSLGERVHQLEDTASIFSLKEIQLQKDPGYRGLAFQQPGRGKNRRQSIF
# Sequence of Cyclin-dependent kinase 8 (P49336 whole entry): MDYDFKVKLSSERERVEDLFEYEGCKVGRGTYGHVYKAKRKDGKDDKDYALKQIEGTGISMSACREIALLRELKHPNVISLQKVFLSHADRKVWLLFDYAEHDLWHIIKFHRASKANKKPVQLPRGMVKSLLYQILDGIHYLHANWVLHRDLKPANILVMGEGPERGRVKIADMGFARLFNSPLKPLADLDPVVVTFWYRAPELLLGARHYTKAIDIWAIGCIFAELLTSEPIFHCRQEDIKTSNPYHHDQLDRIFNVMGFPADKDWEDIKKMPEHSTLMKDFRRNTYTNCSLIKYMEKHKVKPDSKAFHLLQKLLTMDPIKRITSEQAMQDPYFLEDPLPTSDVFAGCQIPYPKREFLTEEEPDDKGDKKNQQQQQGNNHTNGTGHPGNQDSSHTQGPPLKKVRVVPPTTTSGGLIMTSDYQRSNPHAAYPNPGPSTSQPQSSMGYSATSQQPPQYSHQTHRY
compound,measurement,setting,value
CCC(=O)N1CCN(c2ccc(-n3c(=O)ccc4cnc5ccc(-c6cnc7ccccc7c6)cc5c43)cc2C(F)(F)F)CC1,% of control,[1],4.6%
Cc1ccc(-c2ccc3c(ccc4sc5c(c43)NC[C@@H](C)NC5=O)n2)cn1,% of inhibition,[2],4%
CNC(=O)Nc1ccc(-c2nc(N3CC4CCC(C3)O4)c3cnn(C4CCC5(CC4)OCCO5)c3n2)cc1,% of control,[3],92%
CN(C)C/C=C/C(=O)Nc1ccc(C(=O)N2CCCC(Nc3ncc(Cl)c(-c4c[nH]c5ccccc45)n3)C2)cc1 (stereo unspecified),% of control,[4],58%
same,% of control,[5],96%
N#Cc1cccc(-c2c[nH]c3ncnc(N4CCOCC4)c23)c1,% of inhibition,[6],8%
